Source: patent US20230144211A1, “ANTIFOLATE LINKER-DRUGS AND ANTIBODY-DRUG CONJUGATES” (Byondis B.V., priority 2020, published 2023)

Columns and labels:
SW-620 cells = assay: In vitro cell viability assay (CellTiter-Glo, 6 days); assay type: cell-based; settings: Homo sapiens, free antifolate drugs, Table 1a
Experimental: (§1) FaDu, BxPC-3, HeLa, MV4-11, and RAJI cell lines were obtained from Deutsche Sammlung von Mikroorganismen und Zellkulturen (Leipzig, Germany). Jurkat NucLight Red cells were obtained from Essen BioScience Inc. (Ann Arbor, Mich., USA). SK-BR-3 and SK-OV-3 cells were cultured in McCoys 5A medium (Lonza; Walkersville, Md., USA) supplemented with 10% v/w Fetal Bovine Serum (FBS), Heat-inactivated (HI) (Gibco-Life Technologies; Carlsbad, Calif.) and 80 U/mL Pen/Strep (Gibco-Life Technologies), at 37° C. in a humidified incubator under 5% CO2 atmosphere. SW-620 cells were similarly maintained in RPMI 1640 medium (Lonza), containing 10% v/w FBS HI and 80 U/mL Pen/Strep. A-549 cells were similarly maintained in F-12K Nutrient Mixture (1×) (Gibco-Life Technologies) media supplemented with 80 U/mL Pen/Strep and 5% v/w FBS, which was Qualified (Q) (Gibco-Life Technologies). BT-474 and AU-565 cells were similarly maintained in RPMI 1640 medium (Lonza), containing 10% v/w FBS, which was Qualified (Q) (Gibco-Life Technologies), and 80 U/mL Pen/Strep. […] Jurkat NucLight Red cells were similarly maintained in RPMI 1640 medium (Lonza), containing 10% v/w FBS HI, 80 U/mL Pen/Strep and 0.5 μg/mL Puromycin (Gibco-Life Technologies). FaDu cells were cultured in EMEM medium (Lonza) supplemented with 10% v/w FBS HI (Gibco-Life Technologies), 1× GlutaMAX (Gibco-Life Technologies), and 80 U/mL Pen/Strep (Gibco-Life Technologies), at 37° C. in a humidified incubator under 5% CO2 atmosphere.
(§2) After an overnight incubation, 10 serial log 10 dilutions of the free drugs were made in DMSO (Sigma-Aldrich). These free drug dose-response curves were 10-times further diluted in complete growth medium. For the ADCs according to the invention 10 serial log 10 dilutions were made in complete growth medium. 10 μL of a composition comprising a free drug or an ADC according to the invention was added to the assay plate (final DMSO content for free drugs was 1%). […] Cell viability was assessed after 6 days using a luminescent assay kit (CellTiter-Glo™ (CTG), Promega Corporation) according to the manufacturer's instructions. Percentage cell survival was calculated by dividing the measured luminescence for each free drug or ADC according to the concentration with the average mean of untreated cells (1% or 0.1% DMSO control (for free drugs) or 100% complete growth medium (for ADCs)) multiplied by 100.
(§3) Curves were fitted by non-linear regression using the sigmoidal dose-response equation with variable slope (four parameters) using curve-fitting software (GraphPad Prism, version 9.4.0 for Windows, GraphPad, San Diego, Calif. or Electronic Laboratory Notebook (ELN) add-in BioAssay, version 19.1.0.0218, Perkin Elmer, Waltham, Mass.). Relative IC50 values were calculated as the concentration that gives a response halfway between bottom and top of the curve, when using a 4-parameter logistic fit. Data were reported as mean IC50 value of at least one experiment performed in duplicate.

A-549 cells = assay: as above; assay type: cell-based; settings: Homo sapiens, A549; free antifolate drugs, Table 1a; $ steep hillslope
Experimental: (§4) Human tumor cell lines SK-BR-3, SW-620, A-549, BT-474, Jurkat Clone E6-1, AU-565, and SK-OV-3 were obtained from American Type Culture Collection (Rockville, Md., USA). FaDu, BxPC-3, HeLa, MV4-11, and RAJI cell lines were obtained from Deutsche Sammlung von Mikroorganismen und Zellkulturen (Leipzig, Germany). Jurkat NucLight Red cells were obtained from Essen BioScience Inc. (Ann Arbor, Mich., USA). SK-BR-3 and SK-OV-3 cells were cultured in McCoys 5A medium (Lonza; Walkersville, Md., USA) supplemented with 10% v/w Fetal Bovine Serum (FBS), Heat-inactivated (HI) (Gibco-Life Technologies; Carlsbad, Calif.) and 80 U/mL Pen/Strep (Gibco-Life Technologies), at 37° C. in a humidified incubator under 5% CO2 atmosphere. SW-620 cells were similarly maintained in RPMI 1640 medium (Lonza), containing 10% v/w FBS HI and 80 U/mL Pen/Strep. A-549 cells were similarly maintained in F-12K Nutrient Mixture (1×) (Gibco-Life Technologies) media supplemented with 80 U/mL Pen/Strep and 5% v/w FBS, which was Qualified (Q) (Gibco-Life Technologies). BT-474 and AU-565 cells were similarly maintained in RPMI 1640 medium (Lonza), containing 10% v/w FBS, which was Qualified (Q) (Gibco-Life Technologies), and 80 U/mL Pen/Strep. Jurkat Clone E6-1, BxPC-3, HeLa, MV4-11, and RAJI cells were similarly maintained in RPMI 1640 medium (Lonza), containing 10% v/w FBS HI and 80 U/mL Pen/Strep. Jurkat NucLight Red cells were similarly maintained in RPMI 1640 medium (Lonza), containing 10% v/w FBS HI, 80 U/mL Pen/Strep and 0.5 μg/mL Puromycin (Gibco-Life Technologies). FaDu cells were cultured in EMEM medium (Lonza) supplemented with 10% v/w FBS HI (Gibco-Life Technologies), 1× GlutaMAX (Gibco-Life Technologies), and 80 U/mL Pen/Strep (Gibco-Life Technologies), at 37° C. in a humidified incubator under 5% CO2 atmosphere.
as §2, with “Cells in complete growth medium were plated in 96-well plates (90 μL/well) and incubated at 37° C., 5% CO2 at the following cell densities: 6500 SK-BR-3, 4000 SW-620, 2500 A-549, 10000 BT-474, 3000 Jurkat Clone E6-1, 5000 AU-565, 1250 FaDu, 1250 BxPC-3, 1000 HeLa, 7500 MV4-11, 1000 RAJI, 3000 Jurkat NucLight Red, and 4000 SK-OV-3 cells per well. After” for “After”
as §3

SK-BR-3 cells = assay: as above; assay type: cell-based, human; settings: Homo sapiens, SK-BR-3, free antifolate drugs
Experimental: as §1
as §2, with “Cell viability was assessed after 6 days using a luminescent assay kit (CellTiter-Glo™ (CTG), Promega Corporation) according to the manufacturer's instructions.” left out
as §3

AU-565 cells = assay: as above; assay type: cell-based, human; settings: Homo sapiens, AU565, free antifolate drugs
Experimental: as §1
as §2, with “Cell viability was assessed after 6 days using a luminescent assay kit (CellTiter-Glo™ (CTG), Promega Corporation) according to the manufacturer's instructions.” left out
as §3

Human tumor cell lines = assay: In vitro cell viability assays, free antifolate drugs, overall comparison; assay type: cell-based; settings: compared with talotrexin or parent compound
Experimental: as §4
as §2, with “Cells in complete growth medium were plated in 96-well plates (90 μL/well) and incubated at 37° C., 5% CO2 at the following cell densities: 6500 SK-BR-3, 4000 SW-620, 2500 A-549, 10000 BT-474, 3000 Jurkat Clone E6-1, 5000 AU-565, 1250 FaDu, 1250 BxPC-3, 1000 HeLa, 7500 MV4-11, 1000 RAJI, 3000 Jurkat NucLight Red, and 4000 SK-OV-3 cells per well. After” for “After”
as §3

[1] = tested on: Jurkat NucLight Red cells; assay: In vitro cell viability assay (CellTiter-Glo, 6 days); assay type: cell-based, human; settings: Homo sapiens, Jurkat, free antifolate drugs
Experimental: as §1, §2, §3

[2] = Table 1b, # no full dose-response curve

## Cc1c(CNc2ccc(C(=O)N[C@@H](CCCNC(=O)c3ccccc3C(=O)O)C(=O)O)cc2)ccc2nc(N)nc(N)c12 [Comparative compound 1, reference compound]
SW-620 cells
  IC50: 1.41 nM
A-549 cells
  IC50: 1.97 nM
SK-BR-3 cells; Table 1a
  IC50: 0.92 nM

## Nc1nc(N)c2nc(CNc3ccc(C(=O)N[C@@H](CCCNC(=O)c4ccccc4C(=O)O)C(=O)O)cc3)cnc2n1 [Talotrexin, reference compound]
SW-620 cells
  IC50: 1.74 nM
A-549 cells
  IC50: 1.7 nM
SK-BR-3 cells; Table 1a
  IC50: 1.83 nM

## Nc1ccc(-c2cn(CCC[C@H](NC(=O)c3ccc(NCc4cnc5nc(N)nc(N)c5n4)cc3)C(=O)O)nn2)c(C(=O)O)c1 [XR22, (S)-5-Amino-2-(1-(4-carboxy-4-(4-(((2,4-diaminopteridin-6-yl)methyl)amino)benzamido)butyl)-1H-1,2,3-triazol-4-yl)benzoic acid]
A-549 cells
  IC50: ~2.5 nM
SK-BR-3 cells; Table 1a
  IC50: 2.2 nM
AU-565 cells; Table 1a
  IC50: 0.9 nM

## Nc1nc(N)c2nc(CNc3ccc(C(=O)N[C@@H](CCCNC(=O)c4ccc(O)cc4)C(=O)O)cc3)cnc2n1 [XS14, (S)-2-(4-(((2,4-diaminopteridin-6-yl)methyl)amino)benzamido)-5-(4-hydroxybenzamido)pentanoic acid]
A-549 cells
  IC50: ~8.7 nM
SK-BR-3 cells; Table 1a
  IC50: 1.6 nM
AU-565 cells; Table 1a
  IC50: 1.9 nM

## Nc1ccc(C(=O)O)c(C(=O)NCCC[C@H](NC(=O)c2ccc(NCc3cnc4nc(N)nc(N)c4n3)cc2)C(=O)O)c1 [XT9, (S)-4-Amino-2-((4-carboxy-4-(4-(((2,4-diaminopteridin-6-yl)methyl)amino)benzamido)butyl)carbamoyl)-benzoic acid]
SW-620 cells
  IC50: 10 nM
A-549 cells
  IC50: 20 nM
SK-BR-3 cells; Table 1a
  IC50: 17 nM

## Nc1ccc(C(=O)NCCC[C@H](NC(=O)c2ccc(NCc3cnc4nc(N)nc(N)c4n3)cc2)C(=O)O)c(C(=O)O)c1 [XT10, (S)-5-amino-2-((4-carboxy-4-(4-(((2,4-diaminopteridin-6-yl)methyl)-amino)benzamido)butyl)carbamoyl)benzoic acid]
SW-620 cells
  IC50: 2.1 nM
A-549 cells
  IC50: 2 nM
SK-BR-3 cells; Table 1a
  IC50: 1.9 nM

## CN(Cc1cnc2nc(N)nc(N)c2n1)c1ccc(C(=O)N[C@@H](CCCNC(=O)c2cc(N)ccc2C(=O)O)C(=O)O)cc1 [XT20, (S)-4-Amino-2-((4-carboxy-4-(4-(((2,4-diaminopteridin-6-yl)methyl)(methyl)amino)benzamido)butyl)-carbamoyl)benzoic acid]
SW-620 cells
  IC50: 12 nM
A-549 cells
  IC50: 19 nM
SK-BR-3 cells; Table 1a
  IC50: 25 nM

## CN(Cc1cnc2nc(N)nc(N)c2n1)c1ccc(C(=O)N[C@@H](CCCNC(=O)c2ccc(N)cc2C(=O)O)C(=O)O)cc1 [XT21, (S)-5-amino-2-((4-carboxy-4-(4-(((2,4-diaminopteridin-6-yl)methyl)(methyl)amino)benzamido)butyl)carbamoyl)benzoic acid]
SW-620 cells
  IC50: 2.9 nM
A-549 cells
  IC50: 2.3 nM
SK-BR-3 cells; Table 1a
  IC50: 2.1 nM

## Nc1ccc(C(=O)O)c(C(=O)NCCC[C@H](NC(=O)c2ccc(CCc3cnc4nc(N)nc(N)c4n3)cc2)C(=O)O)c1 [XT24, (S)-4-Amino-2-((4-carboxy-4-(4-(2-(2,4-diaminopteridin-6-yl)ethyl)benzamido)butyl)carbamoyl) benzoic acid]
SW-620 cells
  IC50: 7.5 nM
A-549 cells
  IC50: 27 nM
SK-BR-3 cells; Table 1a
  IC50: 18 nM

## Nc1ccc(C(=O)NCCC[C@H](NC(=O)c2ccc(CCc3cnc4nc(N)nc(N)c4n3)cc2)C(=O)O)c(C(=O)O)c1 [XT25, (S)-5-amino-2-((4-carboxy-4-(4-(2-(2,4-diaminopteridin-6-yl)ethyl)benzamido)butyl)-carbamoyl)benzoic acid]
SW-620 cells
  IC50: 1.1 nM
A-549 cells
  IC50: 2.3 nM
SK-BR-3 cells; Table 1a
  IC50: 1 nM

## Nc1ccc(C(=O)NCCC[C@H](NC(=O)c2ccc(NCc3ccc4nc(N)nc(N)c4c3Cl)cc2)C(=O)O)c(-c2nnn[nH]2)c1 [XT110, (S)-5-(4-Amino-2-(1H-tetrazol-5-yl)benzamido)-2-(4-(((2,4-diamino-5-chloroquinazolin-6-yl)methyl)amino)benzamido)pentanoic acid]
Human tumor cell lines
  antifolate activity, comparison in words: strongly increased the antifolate activity
[1]; Table 1b
  IC50: 0.75 nM
[1]; Table 1c
  IC50: 0.92 nM
SK-BR-3 cells; [2]
  IC50: 0.41 nM
SK-BR-3 cells; Table 1c
  IC50: 0.54 nM
AU-565 cells; Table 1b
  IC50: 0.36 nM
AU-565 cells; Table 1c
  IC50: 0.44 nM

## COc1cc(C(=O)N[C@@H](CCCNC(=O)c2ccc(N)cc2-c2nnn[nH]2)C(=O)O)ccc1NCc1cnc2nc(N)nc(N)c2n1 [XT132, (S)-5-(4-Amino-2-(1H-tetrazol-5-yl)benzamido)-2-(4-(((2,4-diaminopteridin-6-yl)methyl)amino)-3-methoxybenzamido)pentanoic acid]
[1]; Table 1b
  IC50: 1.19 nM
SK-BR-3 cells; [2]
  IC50: 2.15 nM
AU-565 cells; Table 1b
  IC50: 0.97 nM
